The values below come from patent US20150225341A1, “PHARMACEUTICALLY ACCEPTABLE SALTS OF THYMODEPRESSIN AND PROCESSES FOR THEIR MANUFACTURE” (APOTEX TECHNOLOGIES INC., priority 2014, published 2015).

Entries after “also recorded” stand apart in the source; their conditions may differ.

Holding throughout (format): physicochemical
The nature of data set [1]: Speciation plot calculation of solution pH (FIG. 5, from experimentally determined pKas). To be noted: according to speciation plot FIG. 5; 0.5 M solution. From the text:
A pharmaceutically acceptable salt of a drug substance is one that is chemically stable and can be used in a pharmaceutical composition. Unlike simple aromatic hydrocarbons, thymodepressin is a dipeptide with multi-functional groups. The dipeptide D-isoglutamyl-D-tryptophan has an alpha amine, two carboxylic acids and an indole nitrogen within the same molecule. An ideal salt should be one that has a solution pH close to about 7 and in the low basic pH range. Through investigations in our laboratory, in the search for a novel salt to address the shortcomings of the disodium salt of D-isoglutamyl-D-tryptophan, the speciation plot (FIG. 5) was used to determine salts with ideal solution pH and solubility that are suitable for pharmaceutical formulations. FIG. 5 is a speciation plot of H-D-iGlu-D-Trp-OH from pH 0 to 12 using experimentally determined pKas. In FIG. 5, LH2=H-D-iGlu-D-Trp-OH, LH=mono carboxylic acid salt, L=dicarboxylic acid salt, and LH3=acid addition salt of H-D-iGlu-D-Trp-OH. The X axis provides the pH of the solution, whereas the Y axis reports the amount of the species present at a particular pH. From our practical experience, we use 6 ml of water per gm of H-D-iGlu-D-Trp-OH for isolation purposes, which corresponds to a concentration of 0.5 M solution.
According to the speciation plot calculation shown in FIG. 5, the diacid form has a pH of about 2.7 to about 3 in solution. The metal salt of formula I wherein M is potassium or lithium; the divalent salt of formula II wherein B is calcium or magnesium has a solution pH close to about 7.
We have applied the speciation plot (FIG. 5) to compute the pH range of the salt forms of the dipeptide H-D-iGlu-D-Trp-OH. […] This is particular ideal for liquid formulation, sublingual tablets, nasal drops and sprays.

Data set [2] is described as follows: Percent crystallinity by X-ray powder diffraction. From the text:
The overall crystallinity measured by means of the XRPD technique provides additional helpful information for pharmaceutical materials that contain some amorphous material formed during synthetic procedure. It is also a valuable measure for control of long-term changes in the crystalline materials. Although not related to any structural and compositional features, the measured “percent crystallinity” may be a good indicator for the stability of a particular material as a function of time.
The percent crystallinity is commonly measured as a ratio between the diffraction portion from the crystalline part of the sample, IC, and the total diffraction from the same sample, IC+B. The values of CC can be obtained after an appropriate subtraction of the scattering portion from the background, IB.
For such kind of analyses, the diffraction is measured as total area under the profile of: • the whole pattern as it is collected (one may correct for the air scattering)—ITOTAL. • the peaks only (IC) after subtraction of the background (correction for the air scattering), • the background only with correction for air scattering—(IB).
However, in this study, due to the technical problems with the D5000 point-detector diffraction system, all the samples were analyzed on a D8 system, equipped with an area, 2D detector, and the above-mentioned approach could not be applied. Therefore, another technique has been developed for measuring the crystallinity of samples analyzed on such system. Only a narrow part of the 2D diffraction image is chosen with a single peak at the centre and a neighbour area where the background will be measured.
All samples were measured for calculation of their crystallinity using a narrow range of 21°-25° with a strongest reflection at […]. The background was subtracted as linear, and an empirical correlation coefficient of 2.5 was applied.

Data set [3] can be described thus: Hygroscopicity of the solid salt in air (laboratory observation). Conditions: solid (freeze-dried / amorphous) salt.

Turning to “calcium salt of D-isoglutamyl-D-tryptophan (1:2) [Example 7]”, the pH in solution entry in data set [1] is recorded as “about 7”. The “% crystallinity” value in data set [2] (XRPD, D8 system with 2D detector, not absolute values, listed as Example 8) was 18-20%; in data set [2] (XRPD, D8 system with 2D detector, not absolute values, listed as H-D-iGlu-D-Trp-OH calcium (2:1)), “less than 67%”; in data set [2] (XRPD, D8 system with 2D detector; not absolute values; listed as calcium salt of thymodepressin [1:2)) it was at most 67%.
Consider “disodium salt of D-isoglutamyl-D-tryptophan”, for which the “hygroscopicity of the solid” value in data set [3] was “extremely hygroscopic turning into a gel in a matter of minutes in air; also recorded: hygroscopic and very difficult to handle”; in data set [3] (listed as disodium salt) it was “extremely hygroscopic and very difficult to weigh”. For the same substance, in data set [1], the pH in solution entry was “above 9.0”.
For “lithium salt of D-isoglutamyl-D-tryptophan (1:1) [Example 3A]”, the pH in solution result in data set [1] was “about 7”.
Consider “magnesium salt of D-isoglutamyl-D-tryptophan (1:2) [Example 5]”, for which the pH in solution entry in data set [1] is reported as “about 7”.
Turning to “potassium salt of D-isoglutamyl-D-tryptophan (1:1) [Example 1]”, the pH in solution result in data set [1] is listed as “about 7”.
